Measured values published in ChEMBL document CHEMBL1151717, “In vivo active aldosterone synthase inhibitors with improved selectivity: lead optimization providing a series of pyridine substituted 3,4-dihydro-1H-quinolin-2-one derivatives” (J Med Chem, 2008).

What was measured:
[1] = biological target: T1, CYP17 (Homo sapiens, UniProt P05093); test: in vitro; conditions: human CYP17 expressed in Escherichia coli
T1 sequence (P05093 whole entry): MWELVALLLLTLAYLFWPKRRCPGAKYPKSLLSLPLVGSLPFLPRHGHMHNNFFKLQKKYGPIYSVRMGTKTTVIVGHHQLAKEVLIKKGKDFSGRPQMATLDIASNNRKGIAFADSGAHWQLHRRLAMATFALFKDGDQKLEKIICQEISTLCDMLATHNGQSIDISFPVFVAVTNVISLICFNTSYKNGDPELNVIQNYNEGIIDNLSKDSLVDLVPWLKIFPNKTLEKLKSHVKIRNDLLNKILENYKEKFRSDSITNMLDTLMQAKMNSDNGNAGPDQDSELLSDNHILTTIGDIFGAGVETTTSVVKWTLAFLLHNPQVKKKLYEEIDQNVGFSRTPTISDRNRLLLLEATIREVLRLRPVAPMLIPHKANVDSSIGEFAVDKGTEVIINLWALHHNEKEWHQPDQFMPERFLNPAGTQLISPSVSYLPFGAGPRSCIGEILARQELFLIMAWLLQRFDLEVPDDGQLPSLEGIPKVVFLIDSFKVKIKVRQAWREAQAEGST
Description: Inhibition of human CYP17 expressed in Escherichia coli at 2.5 uM

[2] = biological target: T2, Aromatase (Homo sapiens, UniProt P11511); test: Inhibition of human placental CYP19; assay type: functional
T2 sequence (P11511 whole entry): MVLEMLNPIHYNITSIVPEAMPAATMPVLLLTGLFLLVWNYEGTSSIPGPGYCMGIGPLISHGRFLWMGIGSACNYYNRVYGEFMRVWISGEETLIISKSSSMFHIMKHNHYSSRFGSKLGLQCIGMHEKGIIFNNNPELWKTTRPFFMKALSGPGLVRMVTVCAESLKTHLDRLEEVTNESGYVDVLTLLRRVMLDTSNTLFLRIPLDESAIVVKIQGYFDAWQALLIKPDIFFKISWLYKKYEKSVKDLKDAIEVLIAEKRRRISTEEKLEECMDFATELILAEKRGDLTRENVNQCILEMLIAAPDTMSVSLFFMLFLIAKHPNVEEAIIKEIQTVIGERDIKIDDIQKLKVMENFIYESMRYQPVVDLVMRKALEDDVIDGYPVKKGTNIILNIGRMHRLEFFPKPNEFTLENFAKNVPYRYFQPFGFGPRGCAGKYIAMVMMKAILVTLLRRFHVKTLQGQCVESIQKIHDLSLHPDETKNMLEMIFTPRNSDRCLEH

[3] = biological target: Cytochrome P450 3A4 (Homo sapiens, UniProt P08684); test: Inhibition of human recombinant CYP3A4 expressed in baculovirus-infected insect microsomes; assay type: ADME, Microsome
[4] = biological target: T3, Cytochrome P450 11B2, mitochondrial (Homo sapiens, UniProt P19099)
T3 sequence (P19099 whole entry): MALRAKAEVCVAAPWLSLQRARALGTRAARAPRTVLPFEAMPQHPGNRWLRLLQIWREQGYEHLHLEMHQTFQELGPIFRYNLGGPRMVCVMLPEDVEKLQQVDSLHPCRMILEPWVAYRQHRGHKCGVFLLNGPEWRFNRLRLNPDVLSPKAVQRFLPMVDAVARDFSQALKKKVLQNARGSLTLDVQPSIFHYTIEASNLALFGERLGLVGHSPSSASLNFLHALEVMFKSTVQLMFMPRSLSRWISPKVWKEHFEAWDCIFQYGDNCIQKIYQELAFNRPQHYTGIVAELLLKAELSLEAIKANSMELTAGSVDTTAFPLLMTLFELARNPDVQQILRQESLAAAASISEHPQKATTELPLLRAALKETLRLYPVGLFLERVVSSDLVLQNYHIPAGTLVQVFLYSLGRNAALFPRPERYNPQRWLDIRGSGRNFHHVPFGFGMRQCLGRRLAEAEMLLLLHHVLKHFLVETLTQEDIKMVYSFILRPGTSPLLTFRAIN

[5] = biological target: Cytochrome P450 2D6 (Homo sapiens, UniProt P10635); test: Inhibition of human recombinant CYP2D6 expressed in baculovirus-infected insect microsomes; assay type: ADME, Microsome
[6] = biological target: T4, CYP1A2 (Homo sapiens, UniProt P05177); test: Inhibition of human recombinant CYP1A2 expressed in baculovirus-infected insect microsomes at 2 uM; assay type: ADME, Microsome
T4 sequence (P05177 whole entry): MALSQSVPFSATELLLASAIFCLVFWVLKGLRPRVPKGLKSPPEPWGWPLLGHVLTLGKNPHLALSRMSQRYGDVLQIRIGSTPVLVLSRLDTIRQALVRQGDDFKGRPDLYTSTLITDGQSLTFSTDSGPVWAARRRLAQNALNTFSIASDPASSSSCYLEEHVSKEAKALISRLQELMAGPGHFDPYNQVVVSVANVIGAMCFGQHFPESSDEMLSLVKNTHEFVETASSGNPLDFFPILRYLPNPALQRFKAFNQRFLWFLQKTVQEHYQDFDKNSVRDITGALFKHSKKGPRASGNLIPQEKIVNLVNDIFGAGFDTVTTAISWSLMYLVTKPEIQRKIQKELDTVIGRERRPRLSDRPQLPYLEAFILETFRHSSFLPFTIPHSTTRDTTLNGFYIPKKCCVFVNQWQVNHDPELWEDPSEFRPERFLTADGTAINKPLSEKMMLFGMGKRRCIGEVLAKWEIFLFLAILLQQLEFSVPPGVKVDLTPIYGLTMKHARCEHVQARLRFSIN

[7] = species: Homo sapiens; test: Selectivity ratio, IC50 for human CYP11B1 to IC50 for human CYP11B2
[8] = biological target: T5, CYP19 (aromatase) (Homo sapiens, UniProt P11511); test: Inhibition of human placental CYP19 at 500 nM; assay type: functional
T5 sequence (P11511 whole entry): T2 sequence (P11511 whole entry)

[9] = biological target: T3, Cytochrome P450 11B2, mitochondrial; test: Inhibition of human CYP11B2 expressed in hamster V79 MZh cells at 500 nM; assay type: cell-based; conditions: V79MZh
[10] = biological target: T6, Cytochrome P450 2B6 (Homo sapiens, UniProt P20813); test: Inhibition of human recombinant CYP2B6 expressed in baculovirus-infected insect microsomes; assay type: ADME, Microsome
T6 sequence (P20813 whole entry): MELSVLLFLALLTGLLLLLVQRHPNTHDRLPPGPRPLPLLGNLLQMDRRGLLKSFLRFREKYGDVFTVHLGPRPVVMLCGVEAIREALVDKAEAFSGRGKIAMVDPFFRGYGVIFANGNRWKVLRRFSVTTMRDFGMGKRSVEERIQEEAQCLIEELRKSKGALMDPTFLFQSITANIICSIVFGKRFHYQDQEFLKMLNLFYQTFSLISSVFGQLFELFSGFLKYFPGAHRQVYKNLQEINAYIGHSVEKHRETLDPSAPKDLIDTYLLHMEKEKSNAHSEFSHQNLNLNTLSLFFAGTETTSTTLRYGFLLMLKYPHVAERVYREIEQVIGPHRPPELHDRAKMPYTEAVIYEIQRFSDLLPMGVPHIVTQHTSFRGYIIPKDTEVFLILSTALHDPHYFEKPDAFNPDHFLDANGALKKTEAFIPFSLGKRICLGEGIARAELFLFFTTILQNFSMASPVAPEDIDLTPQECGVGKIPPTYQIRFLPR

[11] = biological target: Cytochrome P450 2C19 (Homo sapiens, UniProt P33261); test: Inhibition of human recombinant CYP2C19 expressed in baculovirus-infected insect microsomes; assay type: ADME, Microsome
[12] = biological target: Cytochrome P450 2C9 (Homo sapiens, UniProt P11712); test: Inhibition of human recombinant CYP2C9 expressed in baculovirus-infected insect microsomes; assay type: ADME, Microsome
[13] = biological target: T7, Cytochrome P450 11B1, mitochondrial (Homo sapiens, UniProt P15538)
T7 sequence (P15538 whole entry): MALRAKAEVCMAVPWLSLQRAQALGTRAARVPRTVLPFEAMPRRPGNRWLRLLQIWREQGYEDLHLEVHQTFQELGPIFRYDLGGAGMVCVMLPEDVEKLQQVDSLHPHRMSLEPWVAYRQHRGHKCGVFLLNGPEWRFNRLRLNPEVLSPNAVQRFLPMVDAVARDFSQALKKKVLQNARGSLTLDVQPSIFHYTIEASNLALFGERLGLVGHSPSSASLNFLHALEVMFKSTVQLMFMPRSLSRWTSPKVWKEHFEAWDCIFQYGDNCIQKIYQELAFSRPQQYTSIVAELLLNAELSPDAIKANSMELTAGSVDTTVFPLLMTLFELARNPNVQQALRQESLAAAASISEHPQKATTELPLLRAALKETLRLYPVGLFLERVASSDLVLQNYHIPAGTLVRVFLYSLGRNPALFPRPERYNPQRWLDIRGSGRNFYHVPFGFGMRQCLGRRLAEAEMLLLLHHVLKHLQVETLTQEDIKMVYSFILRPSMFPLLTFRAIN

[14] = biological target: T8, Cytochrome P450 1A2 (Homo sapiens, UniProt P05177)
T8 sequence (P05177 whole entry): T4 sequence (P05177 whole entry)

[15] = Cmax in Wistar rat at 5 mg/kg, po by cassette dosing; assay type: ADME, organism-based; parameters: dose 5 mg/kg, route oral; conditions: in vivo
[16] = AUC (0 to infinity) in Wistar rat at 5 mg/kg, po by cassette dosing; assay type: ADME, organism-based; parameters: time infinity, dose 5 mg/kg, route oral; conditions: plasma
[17] = Terminal half life in Wistar rat at 5 mg/kg, po by cassette dosing; assay type: ADME, organism-based; parameters: dose 5 mg/kg, route oral; conditions: in vivo, read-out: beta t1/2 (converted)
[18] = Tmax in Wistar rat at 5 mg/kg, po by cassette dosing; assay type: ADME, organism-based; parameters: dose 5 mg/kg, route oral; conditions: in vivo
[19] = Protein binding in human plasma at 3 uM after 1 hr; assay type: ADME, cell-free; conditions: read-out: PPB (converted)
[20] = Protein binding in rat plasma at 3 uM after 1 hr; assay type: ADME, cell-free; conditions: read-out: PPB (converted)

Cytochrome P450 2C19, sequence (P33261 whole entry): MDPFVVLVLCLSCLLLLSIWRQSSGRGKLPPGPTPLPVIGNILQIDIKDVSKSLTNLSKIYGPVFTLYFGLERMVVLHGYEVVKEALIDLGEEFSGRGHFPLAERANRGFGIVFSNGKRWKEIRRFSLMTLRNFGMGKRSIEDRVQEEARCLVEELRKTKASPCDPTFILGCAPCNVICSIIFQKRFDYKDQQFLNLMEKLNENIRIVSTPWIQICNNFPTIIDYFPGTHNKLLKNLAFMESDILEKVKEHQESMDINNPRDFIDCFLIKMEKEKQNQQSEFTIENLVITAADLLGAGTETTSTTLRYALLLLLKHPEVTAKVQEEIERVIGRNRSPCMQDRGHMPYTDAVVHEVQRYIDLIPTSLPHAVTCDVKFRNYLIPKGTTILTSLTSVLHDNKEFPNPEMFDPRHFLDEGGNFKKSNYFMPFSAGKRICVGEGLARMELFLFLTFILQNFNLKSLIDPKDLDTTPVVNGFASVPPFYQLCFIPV
Cytochrome P450 2C9, sequence (P11712 whole entry): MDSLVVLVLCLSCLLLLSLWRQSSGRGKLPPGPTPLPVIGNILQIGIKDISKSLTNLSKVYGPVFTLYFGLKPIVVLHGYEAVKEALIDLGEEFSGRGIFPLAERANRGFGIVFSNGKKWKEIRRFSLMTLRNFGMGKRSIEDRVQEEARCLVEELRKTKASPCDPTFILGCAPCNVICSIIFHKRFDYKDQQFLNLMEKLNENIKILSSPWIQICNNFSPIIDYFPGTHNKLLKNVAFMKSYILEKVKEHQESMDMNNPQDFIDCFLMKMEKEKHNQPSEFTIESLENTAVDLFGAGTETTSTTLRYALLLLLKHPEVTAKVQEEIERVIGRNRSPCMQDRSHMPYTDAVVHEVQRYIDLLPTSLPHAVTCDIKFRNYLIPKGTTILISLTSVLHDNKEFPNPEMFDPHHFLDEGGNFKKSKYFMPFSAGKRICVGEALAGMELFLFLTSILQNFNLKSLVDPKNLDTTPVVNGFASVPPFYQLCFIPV
Cytochrome P450 2D6, sequence (P10635 whole entry): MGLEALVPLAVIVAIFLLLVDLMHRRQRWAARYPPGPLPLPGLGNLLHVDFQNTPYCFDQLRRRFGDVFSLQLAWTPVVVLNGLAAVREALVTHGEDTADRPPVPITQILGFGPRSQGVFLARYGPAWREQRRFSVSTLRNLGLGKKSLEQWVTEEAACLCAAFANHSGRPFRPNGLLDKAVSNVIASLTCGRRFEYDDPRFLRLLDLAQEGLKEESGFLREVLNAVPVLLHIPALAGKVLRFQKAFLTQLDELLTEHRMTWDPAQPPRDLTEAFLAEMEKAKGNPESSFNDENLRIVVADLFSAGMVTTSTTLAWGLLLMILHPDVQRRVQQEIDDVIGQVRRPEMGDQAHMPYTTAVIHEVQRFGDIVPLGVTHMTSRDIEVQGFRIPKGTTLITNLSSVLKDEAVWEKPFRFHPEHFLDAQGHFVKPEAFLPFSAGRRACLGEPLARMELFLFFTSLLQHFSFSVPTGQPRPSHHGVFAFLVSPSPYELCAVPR
Cytochrome P450 3A4, sequence (P08684 whole entry): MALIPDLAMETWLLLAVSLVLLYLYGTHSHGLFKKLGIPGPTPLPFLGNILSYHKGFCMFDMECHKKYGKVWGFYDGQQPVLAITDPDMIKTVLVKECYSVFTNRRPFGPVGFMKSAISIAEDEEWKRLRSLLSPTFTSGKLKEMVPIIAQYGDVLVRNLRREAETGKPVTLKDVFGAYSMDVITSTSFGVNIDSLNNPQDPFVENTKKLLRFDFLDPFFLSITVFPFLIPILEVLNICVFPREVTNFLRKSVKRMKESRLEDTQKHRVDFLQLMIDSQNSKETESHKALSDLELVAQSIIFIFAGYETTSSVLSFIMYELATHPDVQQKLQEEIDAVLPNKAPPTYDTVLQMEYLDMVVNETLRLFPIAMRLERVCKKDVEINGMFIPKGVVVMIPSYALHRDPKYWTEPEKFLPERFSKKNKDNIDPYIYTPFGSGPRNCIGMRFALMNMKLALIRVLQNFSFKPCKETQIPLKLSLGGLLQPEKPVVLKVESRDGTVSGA

SMILES | inhibition at 2.5 µM [1] [%] | IC50 [4] [µM] | inhibition at 2 µM [6] [%] | Ratio IC50 [7] | inhibition at 0.5 µM [8] [%] | inhibition at 0.5 µM [9] [%] | IC50 [13] [µM] | IC50 [14] [µM] | other results
COc1ccc2cc(-c3cccnc3)ccc2c1 | 72 |  |  |  |  |  |  |  | IC50 [2]: 0.6 µM
COC1CCc2cc(-c3cccnc3)ccc2C1 (stereo not given) | 44 | 0.0033 | 80 | 347 | 22 | 97 |  |  | IC50 [3]: 12.2 µM; IC50 [5]: < 200 µM; IC50 [10]: 47.4 µM; IC50 [11]: < 200 µM; IC50 [12]: 16.3 µM
COc1cncc(-c2ccc3c(c2)CCC(=O)N3)c1 | 12 | 0.0027 | 25 | 126 | < 5 | 91 | 0.339 | 5.24 | 
O=C1CSc2cc(-c3cccnc3)ccc2N1 |  | 0.012 |  |  |  |  | 0.525 |  | 
CN1C(=O)CCc2cc(-c3cccnc3)ccc21 | 8 | 0.0026 | 53 |  | 54 |  | 0.742 | 1.79 | IC50 [5]: < 200 µM; Cmax [15]: 86 ng/mL; AUC(0-inf) [16]: 659 ng·h/mL; half-life [17]: 2.3 h; Tmax [18]: 6 h; IC50 [10]: < 50 µM; IC50 ([11]; read-out: IC50): 122 µM; IC50 [12]: 125 µM
CCOC1CCc2cc(-c3cccnc3)ccc2C1 (stereo not given) |  |  | 73 |  |  |  |  | 0.62 | 
CN1CCOc2cc(-c3cccnc3)ccc21 |  | 0.101 |  | 59 |  | 71 | 5.97 |  | 
O=C1CCc2cc(-c3cccnc3)ccc21 |  |  | 57 |  |  |  |  | 1.55 | fraction unbound at 1 h, 3 µM [19]: 0.78; Cmax [15]: 300 ng/mL; fraction unbound at 1 h, 3 µM [20]: 0.76; AUC(0-inf) [16]: 3180 ng·h/mL; half-life [17]: 2.4 h; Tmax [18]: 4 h; IC50 [10]: < 50 µM; IC50 ([11]; read-out: IC50): 147 µM; IC50 [12]: 123 µM
c1cncc(-c2ccc3ccccc3c2)c1 | 40 |  | 99 |  |  |  |  |  | 
O=C1CCc2cc(-c3cccnc3)cc(Cl)c2N1 | 7 |  | 14 |  | 17 |  |  | 30.6 | 
O=C1Cc2cc(-c3cccnc3)ccc2N1 |  |  | 25 |  |  |  |  |  | 
CN1C(=O)CCc2cc(-c3cncc4ccccc34)ccc21 |  | 0.0001 |  |  |  |  | 0.0069 |  | 
N#CC1=Cc2ccc(-c3cccnc3)cc2CC1 | 74 | 0.0016 | 90 | 181 | < 5 | 97 | 0.29 | 0.18 | 
c1cncc(-c2ccc3c(c2)CCCC3)c1 |  | 0.029 |  | 68 |  | 82 | 1.98 |  | 
CCN1C(=O)CCc2cc(-c3cccnc3)ccc21 | < 5 | 0.022 | 36 |  | 63 |  | 5.18 | 3.48 | 
COc1cncc(-c2ccc3c(c2)CCC(=O)N3C)c1 | < 5 |  | 20 |  | 5 |  |  | 16.5 | 
OC1CCc2cc(-c3cccnc3)ccc2C1 (stereo not given) | 49 | 0.044 | 74 | 112 | 23 | 86 | 4.92 | 0.6 | 
N#Cc1ccc2cc(-c3cccnc3)ccc2c1 | 73 |  |  |  |  |  |  |  | IC50 [2]: > 36 µM
S=C1CCc2cc(-c3cccnc3)ccc2N1 | 72 | 0.0031 | 77 |  | < 5 |  | 0.58 | 0.64 | 
S=C1CCc2cc(-c3cccnc3)cc(Cl)c2N1 |  | 0.0042 |  | 183 |  | 97 | 0.769 |  | 
N#CC1CCc2cc(-c3cccnc3)ccc2C1 (stereo not given) |  |  | 72 |  |  |  |  | 0.66 | 
N#Cc1ccc(C2CCCc3cncn32)cc1 (stereo not given) [FADROZOLE] |  |  |  |  |  |  |  |  | Cmax [15]: 471 ng/mL; AUC(0-inf) [16]: 3210 ng·h/mL; half-life [17]: 3.2 h
